From ChEMBL document CHEMBL6083246 (Bioorg Med Chem, 2024) come the findings set out here.

Active and inactive are the calls of the source. No cut-off for these calls is given here.

Data set [1] relates to RAW264.7. Kind of data set: Antiinflammatory activity in LPS induced mouse RAW264.7 cells assessed as reduction in TNFalpha production at 50 uM incubated for 24 hrs by ELISA. Format: functional, cell-based. Background: An ELISA detects its analyte on a solid surface through an enzyme-linked reagent.
Data set [2] has as its system RAW264.7. Kind of data set: Antiinflammatory activity in LPS induced mouse RAW264.7 cells assessed as reduction in IL-6 production at 50 uM incubated for 24 hrs by ELISA. Format: functional, cell-based.
In data set [3] the test system is RAW264.7. Kind of data set: Cytotoxicity against mouse RAW264.7 cells assessed as reduction in cell viability at < 640 uM incubated for 24 hrs by CCK8 assay. Particulars: raw264.7, 24 h. Format: toxicity, cell-based.
The test system of data set [4] is RAW264.7. Kind of data set: Cytotoxicity against mouse RAW264.7 cells assessed as reduction in cell viability at 1080 uM incubated for 24 hrs by CCK8 assay. Format: toxicity, cell-based. Particulars: raw264.7, 24 h. A general note: Tetrazolium assays rely on reduction of a dye to a coloured formazan, in cell work by metabolically active cells.
Data set [5] has as its system RAW264.7. Kind of data set: Antiinflammatory activity in LPS induced mouse RAW264.7 cells assessed as reduction in NO production incubated for 24 hrs by Griess reagent based assay. Format: functional, cell-based.
The subject of data set [6] is RAW264.7. Kind of data set: Antiinflammatory activity in LPS induced mouse RAW264.7 cells assessed as reduction in NO production at 50 uM incubated for 24 hrs by Griess reagent based assay. Format: functional, cell-based. For orientation: Griess reagent forms a coloured azo dye with nitrite.
The subject of data set [7] is RAW264.7. Kind of data set: Antiinflammatory activity in LPS induced mouse RAW264.7 cells reduction in ROS production incubated for 24 hrs by DCFH-DA staining based microplate reader analysis. Format: functional, cell-based.
The subject of data set [8] is RAW264.7. Kind of data set: Antiinflammatory activity in LPS induced mouse RAW264.7 cells reduction in ROS production at 50 uM incubated for 24 hrs by DCFH-DA staining based microplate reader analysis. Format: functional, cell-based.
Data set [9] addresses Aldo-keto reductase family 1 member B1 (Mus musculus) (UniProt P45376). Kind of data set: Induction of thermal stabilization of AKR1B1 in mouse RAW264.7 cells at 50 uM at 45 to 75 degreeC incubated for 2 hrs by cellular thermal shift assay. Format: cell-based.

On to `CC(/C=C1\SC(=S)N(CC(=O)O)C1=O)=C\c1ccccc1`, for which the result in data set [1] and in [2] was Active.
On to `O=C(/C=C/c1ccc(O)c(O)c1)O[C@@H]1C[C@](O)(C(=O)O)C[C@@H](O)[C@H]1O` [CHLOROGENIC ACID], for which the Activity result is “Non-toxic” in data set [3]; “Toxic” in data set [4]; “Dose-dependent-effect” in data set [5]; “Active; Showed Higher Activity Compared To 4-Cqa And 5-Cqa” in [6]; “Active; Showed Higher Activity Compared To 4-Cqa And 5-Cqa” in data set [1]; “Active; Showed Higher Activity Compared To 4-Cqa And 5-Cqa” in [2]. Also, in data set [7], the Activity entry is “Dose-dependent-effect”. Further, the outcome in data set [8] and in data set [9] was Active.
With `O=C(/C=C/c1ccc(O)c(O)c1)O[C@@H]1C[C@@](O)(C(=O)O)C[C@@H](O)[C@@H]1O`, the Activity result was “Non-toxic” in data set [3], “Toxic” in data set [4], “Dose-dependent-effect” in data set [5] and “Dose-dependent-effect” in data set [7]. Also, the outcome in data set [9] was Active.
Regarding `O=C(/C=C/c1ccc(O)c(O)c1)O[C@H]1[C@H](O)C[C@](O)(C(=O)O)C[C@H]1O`, the Activity result is “Non-toxic” in data set [3]; “Toxic” in data set [4]; “Dose-dependent-effect” in data set [5]; “Active; Showed Higher Activity Compared To 5-Cqa” in data set [1]; “Dose-dependent-effect” in data set [7]. In [9], the outcome was Active.
